The assay concerns the target T1, CRAC channel (Rattus norvegicus, UniProt Q5M848).
T1 construct: endogenous in cells; host or cells: HSC-T6
Briefly: CRAC channel activity / SOCE in HSC-T6. Type of assay: cell-based. To be noted: HSC-T6, 10 μM pretreatment 45 min. The protocol:
Cells were co-treated with various compounds (10 μM) and TGF-β1 for 24 hours. Following this, cell lysates were harvested, and the protein expression was assessed by Western blot analysis. FIG. 3D depicts the examination of TGF-β1-induced fibronectin deposition and α-SMA expression in HCF treated with 10 μM of DMSO, BTP2, WRG-28, or Av through immunofluorescence staining. The images were captured using a confocal microscope, the Olympus FV-1000. FIG. 3E, FIG. 3F, and FIG. 3G illustrate the assessment of CRAC channel activity in HCF, MRC5, and rat HSC-T6. These cells were pretreated with 10 μM of BTP2, WRG-28, or Av for 45 min. The evaluation included measuring the second peak of each calcium wave and the rate of entry. Each bar within the figure represents the mean value derived from 77 to 91 cells for HCF, 31 to 49 cells for MRC5, and 43 to 94 cells for HSC-T6. In all the graphs, *, **, and *** denote p-values of <0.05, 0.01, and 0.001, respectively.
Cells cultured on a glass-bottom 96 well plate for 48 hours were treated with different compounds (10 μM) and Fura 2-AM (1 μM) simultaneously in a solution containing 145 mM NaCl, 2.8 mM KCl, 2 mM CaCl2, 2 mM MgCl2, 10 mM D-glucose, 10 mM HEPES, pH 7.4 for 40 minutes in the dark. […] All the images were analyzed by using IGOR Pro software. […]

T1 sequence (Q5M848 whole entry): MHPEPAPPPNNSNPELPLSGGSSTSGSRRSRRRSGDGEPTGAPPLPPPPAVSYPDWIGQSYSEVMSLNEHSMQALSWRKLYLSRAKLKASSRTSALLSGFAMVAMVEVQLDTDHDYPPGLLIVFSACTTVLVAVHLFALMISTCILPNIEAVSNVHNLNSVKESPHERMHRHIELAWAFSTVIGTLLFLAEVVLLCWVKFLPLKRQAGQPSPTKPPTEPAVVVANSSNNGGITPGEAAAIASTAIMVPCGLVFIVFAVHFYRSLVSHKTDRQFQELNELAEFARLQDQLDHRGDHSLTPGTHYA

On to `CCNS(=O)(=O)c1ccc(COc2ccc3nc4ccc(=O)cc-4oc3c2)cc1` [WRG-28], for which the SOCE entry was “notably reduced”.
